{"source": "patent US9730905B2", "about": "“Monounsaturated fatty acid for preventing and/or treating skin complexion imperfections” (L'OREAL, priority 2010, dated 2017)", "system": "skin tissue", "experiment": "Inventors' demonstration of the effect of monounsaturated fatty acids on skin tissue and complexion", "settings": "in vivo"}
{"smiles": "CCCCCCCCCCC/C=C\\CCCCC(=O)O", "note": "[petroselinic acid]", "values": [{"measurement": "restoration of normal skin tissue / complexion", "value": "lead to a restoration of normal skin tissue in perfect homeostasis"}]}
